In US11718612B2, “Inhibitors of receptor interacting protein kinase I for the treatment of disease” (Board of Regents, The University of Texas System, priority 2019, dated 2023) one finds IC50 data, which are given here for 27 compounds.

In general, IC50 refers to the point on the concentration scale where inhibition reaches its midpoint. Low values mean higher potency, high ones lower potency.

The subject of the assay is U937 cells. Kind of assay: Human U937 cellular necroptosis assay. Type of assay: cell-based. Particulars: U-937; U937 cells stimulated with 25 ng/mL human TNFalpha and 25 μM z-VAD-FMK; 22 hr; Cell Titer-Glo viability. The procedure: Human U937 Cellular Necroptosis Assay
The human monocytic cell line U937 (CRL-1593.2) may be purchased from ATCC. The cells are routinely maintained in RPMI-1640 Medium (Gibco, Catalog #11875-093) supplemented with 10% heat inactivated fetal bovine serum (Gibco, Catalog #16140-071), 100 units/mL penicillin and 100 μg/mL streptomycin (Gibco, Catalog #15140-122), in a humidified incubator (37° C., 5% CO2). For the assay, cells are resuspended in RPMI-1640 phenol red free Media (Gibco, Catalog #11835-030) supplemented with 10% fetal bovine serum (Sigma, Catalog #F2442), 100 units/mL penicillin and 100 ug/mL streptomycin. […] Stock solutions of the test compounds are prepared in 100% DMSO (Sigma, Catalog #D2650) and serially diluted 1:3 using 100% DMSO. Compounds are additionally diluted 1:40 in assay medium, and 10 μL/well was transferred to the plate. Following the compound addition, the plate is incubated at 37° C. and 5% CO2 for 22 hr. After 22 hr, viability is assessed with the addition of 20 μL of Cell Titer-Glo 2.0 (Promega, Catalog #G9243). The tissue culture plate is shaken on an orbital shaker at 300 RPM for 15 minutes at room temperature in the dark. Luminescence is measured using a PerkinElmer Envision™ plate reader. IC50 values are calculated using a four-parameter logistic curve fit using Genedata Screener software.

`Cc1cccc(Cn2nc3c(c2Cl)CCN(c2cccc(Cl)c2F)C3=O)c1` [Example 67, 3-chloro-6-(3-chloro-2-fluorophenyl)-2-(3-methylbenzyl)-2,4,5,6-tetrahydro-7H-pyrazolo[3,4-c]pyridin-7-one] registered an IC50 of 444 nM.
With `Cn1cc(Cn2nc3c(c2Cl)CCN(c2cccc(Cl)c2F)C3=O)cn1` [Example 68, 3-chloro-6-(3-chloro-2-fluorophenyl)-2-((1-methyl-1H-pyrazol-4-yl)-methyl)-2,4,5,6-tetrahydro-7H-pyrazolo[3,4-c]pyridin-7-one] the figure was 1340 nM.
Next, `O=C1c2nn(CC3CCCOC3)c(Cl)c2CCN1c1cccc(Cl)c1F` (stereo not drawn) [Example 69, 3-chloro-6-(3-chloro-2-fluorophenyl)-2-((tetrahydro-2H-pyran-3-yl)methyl)-2,4,5,6-tetrahydro-7H-pyrazolo[3,4-c]pyridin-7-one]: 563 nM; `Cc1c2c(nn1Cc1ccccc1)C(=O)N(c1cccc(Cl)c1F)CC2` [Example 70, 2-benzyl-6-(3-chloro-2-fluorophenyl)-3-methyl-2,4,5,6-tetrahydro-7H-pyrazolo[3,4-c]pyridin-7-one]: 233 nM; `N#Cc1c2c(nn1Cc1ccccc1)C(=O)N(c1cccc(Cl)c1F)CC2` [Example 71, 2-benzyl-6-(3-chloro-2-fluorophenyl)-7-oxo-4,5,6,7-tetrahydro-2H-pyrazolo[3,4-c]pyridine-3-carbonitrile]: 256 nM.
With `NCc1c2c(nn1Cc1ccccc1)C(=O)N(c1cccc(Cl)c1F)CC2` [Example 72, 3-(aminomethyl)-2-benzyl-6-(3-chloro-2-fluorophenyl)-2,4,5,6-tetrahydro-7H-pyrazolo[3,4-c]pyridin-7-one] the figure was 6110 nM.
On to `O=C1c2nn(Cc3ccccc3)c(CO)c2CCN1c1cccc(Cl)c1F` [Example 73, 2-benzyl-6-(3-chloro-2-fluorophenyl)-3-(hydroxymethyl)-2,4,5,6-tetrahydro-7H-pyrazolo[3,4-c]pyridin-7-one], for which the midpoint of inhibition, the IC50, lay at 348 nM.
Next, `O=C1c2nn(Cc3ccccc3)c(C(F)F)c2CCN1c1cccc(Cl)c1F` [Example 74, 2-Benzyl-6-(3-chloro-2-fluorophenyl)-3-(difluoromethyl)-2,4,5,6-tetrahydro-7H-pyrazolo[3,4-c]pyridin-7-one]: 42 nM; `O=C1c2nn(Cc3ncccc3F)c(Cl)c2CCN1c1cc(CO)cc(Cl)c1F` [Example 76, 3-chloro-6-(3-chloro-2-fluoro-5-(hydroxymethyl)phenyl)-2-((3-fluoropyridin-2-yl)methyl)-2,4,5,6-tetrahydro-7H-pyrazolo[3,4-c]pyridin-7-one]: 917 nM.
With `O=C1c2nn(Cc3ncccc3F)cc2CCN1c1cc(CO)cc(Cl)c1F` [Example 77, 6-(3-chloro-2-fluoro-5-(hydroxymethyl)phenyl)-2-((3-fluoropyridin-2-yl)methyl)-2,4,5,6-tetrahydro-7H-pyrazolo[3,4-c]pyridin-7-one] the figure was 594 nM; with `CN(C)Cc1cc(Cl)c(F)c(N2CCc3c(nn(Cc4ncccc4F)c3Cl)C2=O)c1` [Example 78, 3-chloro-6-(3-chloro-5-((dimethylamino)methyl)-2-fluorophenyl)-2-((3-fluoropyridin-2-yl)methyl)-2,4,5,6-tetrahydro-7H-pyrazolo[3,4-c]pyridin-7-one], more than 10000 nM; with `O=C1c2nn(Cc3cccc(F)c3F)c(Cl)c2CCN1c1cc(CO)cc(Cl)c1F` [Example 79, 3-chloro-6-(3-chloro-2-fluoro-5-(hydroxymethyl)phenyl)-2-(2,3-difluorobenzyl)-2,4,5,6-tetrahydro-7H-pyrazolo[3,4-c]pyridin-7-one], 346 nM.
With `COCCOCc1cc(Cl)c(F)c(N2CCc3c(nn(Cc4cccc(F)c4F)c3Cl)C2=O)c1` [Example 80, 3-chloro-6-(3-chloro-2-fluoro-5-((2-methoxyethoxy)methyl)phenyl)-2-(2,3-difluorobenzyl)-2,4,5,6-tetrahydro-7H-pyrazolo[3,4-c]pyridin-7-one] the figure was 958 nM.
`COCc1cc(Cl)c(F)c(N2CCc3c(nn(Cc4cccc(F)c4F)c3Cl)C2=O)c1` [Example 81, 3-chloro-6-(3-chloro-2-fluoro-5-(methoxymethyl)phenyl)-2-(2,3-difluorobenzyl)-2,4,5,6-tetrahydro-7H-pyrazolo[3,4-c]pyridin-7-one] came in with an IC50 of more than 10000 nM.
`O=C1c2nn(Cc3cccc(F)c3F)c(Cl)c2CCN1c1cc(Cn2ccnc2)cc(Cl)c1F` [Example 82, 6-(5-((1H-imidazol-1-yl)methyl)-3-chloro-2-fluorophenyl)-3-chloro-2-(2,3-difluorobenzyl)-2,4,5,6-tetrahydro-7H-pyrazolo[3,4-c]pyridin-7-one]: the IC50 is 863 nM.
Regarding `O=C1c2nn(Cc3cccc(F)c3F)c(Cl)c2CCN1c1cc(CNCC(F)(F)F)cc(Cl)c1F` [Example 83, 3-chloro-6-(3-chloro-2-fluoro-5-(((2,2,2-trifluoroethyl)amino)methyl)phenyl)-2-(2,3-difluorobenzyl)-2,4,5,6-tetrahydro-7H-pyrazolo[3,4-c]pyridin-7-one], the IC50 was 1230 nM.
Compound `N#CCc1cc(Cl)c(F)c(N2CCc3c(nn(Cc4cccc(F)c4F)c3Cl)C2=O)c1` [Example 84, 2-(3-chloro-5-(3-chloro-2-(2,3-difluorobenzyl)-7-oxo-2,4,5,7-tetrahydro-6H-pyrazolo[3,4-c]pyridin-6-yl)-4-fluorophenyl)acetonitrile] displayed an IC50 of 142 nM.
Next, `CC(=O)NCc1cc(Cl)c(F)c(N2CCc3c(nn(Cc4cccc(F)c4F)c3Cl)C2=O)c1` [Example 85, N-(3-chloro-5-(3-chloro-2-(2,3-difluorobenzyl)-7-oxo-2,4,5,7-tetrahydro-6H-pyrazolo[3,4-c]pyridin-6-yl)-4-fluorobenzyl)acetamide]: 1040 nM.
The compound `Cc1cnc(Cn2cnc(C(=O)Nc3cccc(Cl)c3F)n2)cn1` [Example 91, N-(3-chloro-2-fluorophenyl)-1-((5-methylpyrazin-2-yl)methyl)-1H-1,2,4-triazole-3-carboxamide] had an IC50 of 2560 nM.
Turning to `NCc1cc(Cl)c(F)c(NC(=O)c2ncn(Cc3ccccc3)n2)c1` [Example 92, N-(5-(aminomethyl)-3-chloro-2-fluorophenyl)-1-benzyl-1H-1,2,4-triazole-3-carboxamide], the IC50 is 1650 nM.
Next, `CS(=O)(=O)NCc1cc(Cl)c(F)c(NC(=O)c2ncn(Cc3ccccc3)n2)c1` [Example 93, 1-Benzyl-N-(3-chloro-2-fluoro-5-(methylsulfonamidomethyl)phenyl)-1H-1,2,4-triazole-3-carboxamide]: 1500 nM; `O=C(Nc1cc(CO)cc(Cl)c1F)c1ncn(Cc2ccccc2)n1` [Example 94, 1-Benzyl-N-(3-chloro-2-fluoro-5-(hydroxymethyl)phenyl)-1H-1,2,4-triazole-3-carboxamide]: 797 nM.
`COCCOCc1cc(Cl)c(F)c(NC(=O)c2ncn(Cc3ccccc3)n2)c1` [Example 95]: the IC50 stood at 529 nM.
With `N#CCc1cc(Cl)c(F)c(NC(=O)c2ncn(Cc3ccccc3)n2)c1` [Example 96, 1-Benzyl-N-(3-chloro-5-(cyanomethyl)-2-fluorophenyl)-1H-1,2,4-triazole-3-carboxamide] the figure was 347 nM.
Next, `O=C(Nc1cc(Cn2ccnc2)cc(Cl)c1F)c1ncn(Cc2ccccc2)n1` [Example 97, N-(5-((1H-imidazol-1-yl)methyl)-3-chloro-2-fluorophenyl)-1-benzyl-1H-1,2,4-triazole-3-carboxamide]: 1180 nM; `O=C(Nc1cc(Cn2cnc3ccccc32)cc(Cl)c1F)c1ncn(Cc2ccccc2)n1` [Example 98, N-(5-((1H-benzo[d]imidazol-1-yl)methyl)-3-chloro-2-fluorophenyl)-1-benzyl-1H-1,2,4-triazole-3-carboxamide]: 3860 nM.
For the compound `O=C(Nc1cc(Cn2cccn2)cc(Cl)c1F)c1ncn(Cc2ccccc2)n1` [Example 99, N-(5-((1H-pyrazol-1-yl)methyl)-3-chloro-2-fluorophenyl)-1-benzyl-1H-1,2,4-triazole-3-carboxamide], inhibition was half-maximal at 2540 nM (IC50).
